# Results taken from ChEMBL document CHEMBL1201862, “PubChem BioAssay data set” (2004).
# The source made the active and inactive calls.
# How the values were obtained:
# [1] = bead-based luminescence quenchers, dual-tagged ARNT – biochemical, AlphaScreen, cherry-pick, artefact control for ARNT-TACC3 interaction inhibitor project, dose response (AID 651705); assay type: functional;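 further: AlphaScreen bead proximity signal that flags compounds interfering with the detection technology; potency reflects signal decrease which marks the compound as an assay artifact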
# [2] = tested on: H9c2; test: cells; assay type: functional, cell-based; settings: Rattus norvegicus, H9c2, Myocardium;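 further: confirmatory concentration-response retest of ultra-high-throughput screening hits for modulation of myocardial damage; cell death induced by hydrogen peroxide oxidative stress; compound pretreatment for 60 min then peroxide exposure for 2 h; potency is for protecting the cells against peroxide damage rather than for killing them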
# [3] = biological target: Fructose-bisphosphate aldolase (Mycobacterium tuberculosis, UniProt P9WQA3); test: Fluorescence-based biochemical high throughput dose response assay for inhibitors of the fructose-bisphosphate aldolase (FBA) of M. tuberculosis.; assay type: functional
# [4] = biological target: Induced myeloid leukemia cell differentiation protein Mcl-1 (Homo sapiens, UniProt Q07820); assay type: functional
# [5] = biological target: T1, Carboxy-terminal domain RNA polymerase II polypeptide A small phosphatase 1 (Homo sapiens, UniProt Q9GZU7); test: CTDSP1 inhibitors, concentration-response, biochemical, absorbance readout, ultra-high-throughput screen actives (AID 540297); assay type: functional
# T1 sequence (Q9GZU7 whole entry): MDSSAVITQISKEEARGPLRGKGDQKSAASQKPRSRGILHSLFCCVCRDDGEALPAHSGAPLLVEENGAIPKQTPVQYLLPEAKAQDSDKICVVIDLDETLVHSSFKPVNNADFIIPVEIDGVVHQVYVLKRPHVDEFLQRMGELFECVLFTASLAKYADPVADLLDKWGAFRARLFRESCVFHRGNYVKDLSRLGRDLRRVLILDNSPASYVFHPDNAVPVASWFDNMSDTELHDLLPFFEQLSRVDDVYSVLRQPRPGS
# [6] = biological target: T2, Probable nicotinate-nucleotide adenylyltransferase (Staphylococcus aureus (strain N315), UniProt P65502); assay type: functional, Staphylococcus aureus subsp. aureus N315;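 on IC50 Mean: confirmatory dose-response retesting of NadD inhibitor hits first found in an ultra-high-throughput screen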
# [7] = biological target: T2, Probable nicotinate-nucleotide adenylyltransferase; assay type: functional, Staphylococcus aureus subsp. aureus N315; settings: read-out: IC50_Mean
# [8] = NIH-3T3 fibroblast cytotoxicity, dose response, cytotoxicity control, cell-based, fluorescence, Alamar Blue, secondary assay (AID 2327); assay type: functional;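 further: NIH-3T3 mouse fibroblasts cultured with fluconazole at 8 µg/mL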
# [9] = fluconazole-exposed Candida albicans growth modulators – fluorescence, retest, confirmation (AID 2467); assay type: functional, cell-based
# [10] = Trypanosoma cruzi growth suppression in host cells – NIH3T3 host cells, beta-gal luminescence, confirmation (AID 2044); assay type: functional, cell-based;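 further: intracellular parasites grown in NIH/3T3 mouse fibroblasts as host cells; luminescent beta-galactosidase reporter signal from transgenic T. cruzi replicating inside host cells; inhibitors lower the luminescence signal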
# [11] = NIH3T3 cell viability loss – ATP luminescence, mouse fibroblasts, counter-screen, dose response (AID 2010); assay type: functional, cell-based;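 further: cells exposed to compound for about 90 hours before reading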
# [12] = biological target: Photoreceptor-specific nuclear receptor (Homo sapiens, UniProt Q9Y5X4); assay type: functional, cell-based;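 further: CHO-S cells with Gal4-NCOR and VP16-NR2E3 two-hybrid luciferase reporter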
# [13] = cells; assay type: functional, cell-based
# [14] = biological target: T3, Nuclear receptor subfamily 0 group B member 1 (Homo sapiens, UniProt P51843); assay type: functional, cell-based;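 further: HEK293T cells transfected with SF-1 and DAX-1 plus StAR promoter luciferase reporter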
# T3 sequence (P51843 whole entry): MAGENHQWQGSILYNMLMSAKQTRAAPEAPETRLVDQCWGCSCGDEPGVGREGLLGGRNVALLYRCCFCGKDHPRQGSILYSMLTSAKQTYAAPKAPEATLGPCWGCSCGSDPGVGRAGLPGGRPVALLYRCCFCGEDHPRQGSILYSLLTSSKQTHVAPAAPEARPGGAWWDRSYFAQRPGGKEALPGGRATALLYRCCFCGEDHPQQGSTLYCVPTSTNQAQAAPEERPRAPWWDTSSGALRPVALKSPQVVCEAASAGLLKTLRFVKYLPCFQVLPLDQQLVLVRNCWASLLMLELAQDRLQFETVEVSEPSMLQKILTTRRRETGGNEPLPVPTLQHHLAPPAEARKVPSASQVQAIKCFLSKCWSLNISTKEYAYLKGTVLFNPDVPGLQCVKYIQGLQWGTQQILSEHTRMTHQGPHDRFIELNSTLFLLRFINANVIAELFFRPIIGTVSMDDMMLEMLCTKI
# [15] = tested on: HEK293; test: cells; settings: Homo sapiens
# [16] = tested on: HEK293; test: cells; settings: Homo sapiens; remark: listed apart in the source
# [17] = biological target: Dual specificity tyrosine-phosphorylation-regulated kinase 1A (Rattus norvegicus, UniProt Q63470); assay type: biochemical, Homo sapiens
# [18] = biological target: DNA repair and recombination protein RAD54-like (Homo sapiens, UniProt Q92698); test: RAD54 Holliday junction migration blockers – biochemical, fluorescence, cherry-picked samples, dose series, confirmation (AID 651657); assay type: functional
# [19] = biological target: T4, Rac GTPase-activating protein 1 (Homo sapiens, UniProt Q9H0H5); test: blockers of MgcRacGAP-driven Rac1 GTP hydrolysis – biochemical, ADP Hunter fluorescence, primary and confirmatory, confirmation (AID 624330); assay type: functional
# T4 sequence (Q9H0H5 whole entry): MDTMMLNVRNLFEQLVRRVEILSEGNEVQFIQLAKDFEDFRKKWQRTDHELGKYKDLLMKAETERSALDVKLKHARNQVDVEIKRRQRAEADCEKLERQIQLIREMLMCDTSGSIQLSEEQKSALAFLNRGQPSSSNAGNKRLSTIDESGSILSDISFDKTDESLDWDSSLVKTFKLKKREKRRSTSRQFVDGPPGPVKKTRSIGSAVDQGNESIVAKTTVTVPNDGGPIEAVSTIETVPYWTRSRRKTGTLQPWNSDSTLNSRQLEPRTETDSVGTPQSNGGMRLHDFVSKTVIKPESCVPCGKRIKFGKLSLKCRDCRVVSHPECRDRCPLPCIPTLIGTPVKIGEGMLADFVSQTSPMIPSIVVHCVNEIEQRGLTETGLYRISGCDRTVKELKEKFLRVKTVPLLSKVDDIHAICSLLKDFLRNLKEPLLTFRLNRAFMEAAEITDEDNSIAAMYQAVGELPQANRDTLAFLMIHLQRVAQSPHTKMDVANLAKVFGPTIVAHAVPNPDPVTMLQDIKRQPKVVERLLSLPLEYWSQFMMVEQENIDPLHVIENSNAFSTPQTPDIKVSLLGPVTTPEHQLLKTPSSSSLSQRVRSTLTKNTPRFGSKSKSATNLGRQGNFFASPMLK
# T2 sequence (P65502 whole entry): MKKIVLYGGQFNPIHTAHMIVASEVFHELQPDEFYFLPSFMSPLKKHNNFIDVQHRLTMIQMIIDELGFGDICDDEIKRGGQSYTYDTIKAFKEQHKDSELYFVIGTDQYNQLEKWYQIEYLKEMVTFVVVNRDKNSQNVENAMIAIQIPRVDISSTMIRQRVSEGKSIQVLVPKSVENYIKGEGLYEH
# Chain of Photoreceptor-specific nuclear receptor (Q9Y5X4 whole entry, the tested form may be a part): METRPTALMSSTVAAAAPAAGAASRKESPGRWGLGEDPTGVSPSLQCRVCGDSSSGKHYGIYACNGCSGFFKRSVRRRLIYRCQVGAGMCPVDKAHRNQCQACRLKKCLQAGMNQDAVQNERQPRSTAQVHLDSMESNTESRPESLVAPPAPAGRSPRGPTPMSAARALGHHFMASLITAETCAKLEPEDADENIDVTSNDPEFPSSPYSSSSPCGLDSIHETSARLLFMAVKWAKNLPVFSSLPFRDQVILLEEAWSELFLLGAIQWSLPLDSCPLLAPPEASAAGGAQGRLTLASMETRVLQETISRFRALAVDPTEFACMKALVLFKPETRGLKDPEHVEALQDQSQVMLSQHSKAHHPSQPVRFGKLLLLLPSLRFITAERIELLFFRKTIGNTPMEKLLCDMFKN
# Chain of DNA repair and recombination protein RAD54-like (Q92698 whole entry): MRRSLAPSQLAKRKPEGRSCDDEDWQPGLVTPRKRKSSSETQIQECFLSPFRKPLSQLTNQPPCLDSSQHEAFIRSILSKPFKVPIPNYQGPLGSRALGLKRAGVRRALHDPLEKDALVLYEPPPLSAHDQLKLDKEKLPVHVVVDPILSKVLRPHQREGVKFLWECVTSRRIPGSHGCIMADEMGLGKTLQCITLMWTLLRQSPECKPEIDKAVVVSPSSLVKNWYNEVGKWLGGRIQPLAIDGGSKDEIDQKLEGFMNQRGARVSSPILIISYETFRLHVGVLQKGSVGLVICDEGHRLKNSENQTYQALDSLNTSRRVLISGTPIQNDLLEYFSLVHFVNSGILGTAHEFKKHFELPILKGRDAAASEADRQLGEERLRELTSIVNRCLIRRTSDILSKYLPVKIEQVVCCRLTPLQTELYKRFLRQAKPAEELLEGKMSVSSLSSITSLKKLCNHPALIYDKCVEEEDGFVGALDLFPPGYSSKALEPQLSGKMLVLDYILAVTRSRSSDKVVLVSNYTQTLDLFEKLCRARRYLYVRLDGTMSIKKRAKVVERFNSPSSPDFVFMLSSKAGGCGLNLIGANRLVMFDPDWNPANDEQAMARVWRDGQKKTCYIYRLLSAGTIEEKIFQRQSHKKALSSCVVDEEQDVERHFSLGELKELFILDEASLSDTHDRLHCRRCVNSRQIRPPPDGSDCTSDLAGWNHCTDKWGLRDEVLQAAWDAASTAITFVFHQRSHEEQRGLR
# Chain of Induced myeloid leukemia cell differentiation protein Mcl-1 (Q07820 whole entry, the tested form may be a part): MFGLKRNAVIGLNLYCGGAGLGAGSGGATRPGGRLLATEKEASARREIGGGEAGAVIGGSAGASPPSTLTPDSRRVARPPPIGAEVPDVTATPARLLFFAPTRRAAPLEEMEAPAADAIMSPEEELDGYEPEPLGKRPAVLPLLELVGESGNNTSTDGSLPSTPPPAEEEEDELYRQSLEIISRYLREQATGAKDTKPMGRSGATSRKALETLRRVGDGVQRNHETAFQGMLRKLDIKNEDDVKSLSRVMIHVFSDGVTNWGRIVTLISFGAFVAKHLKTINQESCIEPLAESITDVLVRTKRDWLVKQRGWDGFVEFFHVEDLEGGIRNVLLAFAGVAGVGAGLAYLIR
# Chain of Fructose-bisphosphate aldolase (P9WQA3 whole entry): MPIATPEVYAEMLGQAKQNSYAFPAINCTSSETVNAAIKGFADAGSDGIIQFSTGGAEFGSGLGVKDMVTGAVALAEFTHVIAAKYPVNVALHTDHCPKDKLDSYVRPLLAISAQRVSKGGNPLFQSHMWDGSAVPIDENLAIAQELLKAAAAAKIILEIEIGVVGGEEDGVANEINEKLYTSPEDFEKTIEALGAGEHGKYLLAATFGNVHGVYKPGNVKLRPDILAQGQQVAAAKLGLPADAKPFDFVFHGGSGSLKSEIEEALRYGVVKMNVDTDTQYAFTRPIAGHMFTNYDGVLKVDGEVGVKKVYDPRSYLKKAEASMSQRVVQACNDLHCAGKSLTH
structure (smiles),measurement,setting,value
O=C(NCCCn1ccnc1)C(=O)NCC1OCCN1S(=O)(=O)c1ccc2c(c1)OCCO2 (stereo not given),AC50,[1],89.6 µM (active)
CSCC[C@H](NC(=O)OC(C)(C)C)C(=O)N/N=C/c1cccc2cccnc12,IC50,[2],> 79 µM (inactive)
same,AC50,[1],132 µM (active)
Cn1c(/C=N/n2cnnc2)nc2ccccc21,IC50,[3],1.54 µM (active)
C/C(=N\NC(=O)c1cccc(N/N=C(\C)c2ccco2)c1)c1ccco1,IC50,[4],3.19 µM (active)
same,IC50,[5],3.17 µM (active)
same,IC50,[6],10.6 µM (active)
same,IC50,[7],14.8 µM (active)
COc1cc2c(O)c3c(c(-c4ccc5c(c4)OCO5)c2cc1OC)C(=O)OC3 [DIPHYLLIN],EC50,[8],33.5 µM (active)
same,EC50,[9],2.59 µM (active)
same,EC50,[10],1.65 µM (active)
same,EC50,[11],> 30 µM (not active)
same,IC50,[12],0.962 µM (active)
same,IC50,[13],> 67.6 µM (inactive)
same,IC50,[14],> 67.6 µM (inactive)
same,EC50,[15],> 59.7 µM (inactive)
same,EC50,[16],> 59.7 µM (inactive)
Cc1[nH]ccc2c1[nH]c1cc(=O)ccc12 [HARMOL],AC50,[17],0.298 µM (active)
same,AC50,[18],23.9 µM (active)
same,IC50,[19],44.9 µM (active)
